Earlier results on two substances are cited in patent publication US20040040468A1, “Drier for printing ink and printing ink containing drier” (DAINIPPON INK AND CHEMICALS, INC., priority 2002, published 2004).

In the series the test system is rat. The note with it: from database REGISTRY OF TOXIC EFFECTS OF CHEMICAL SUBSTANCES

On to Manganese naphthenate, for which the “LD50 (rat, oral administration)” value was 6000 mg/kg.

In the case of Cobalt naphthenate, the “LD50 (rat, oral administration)” value was 3900 mg/kg.
